According to ChEMBL document CHEMBL1201862, “PubChem BioAssay data set” (2004):
The source made the active and inactive calls.

Key:
Cytochrome P450 2C19 = Cytochrome P450 2C19 (Homo sapiens, UniProt P33261); assay: qHTS Assay for Inhibitors and Substrates of Cytochrome P450 2C19. [Related pubchem assays: 410 ]; assay type: ADME; details: read-out: Potency
[1] = target: Aryl hydrocarbon receptor (Homo sapiens, UniProt P35869); assay: Luminescence-based cell-based high throughput dose response assay for activators of the Aryl Hydrocarbon Receptor (AHR). [Related pubchem assays: 2796 (Primary screen (AHR activators in singlicate)), 2845 (Confirmation screen (AHR activators in triplicate)), 434939 (Counterscreen (PXR activators in triplicate)), 2804 (Summary (AHR activators))]; assay type: ADME
Aryl hydrocarbon receptor, sequence (P35869 whole entry): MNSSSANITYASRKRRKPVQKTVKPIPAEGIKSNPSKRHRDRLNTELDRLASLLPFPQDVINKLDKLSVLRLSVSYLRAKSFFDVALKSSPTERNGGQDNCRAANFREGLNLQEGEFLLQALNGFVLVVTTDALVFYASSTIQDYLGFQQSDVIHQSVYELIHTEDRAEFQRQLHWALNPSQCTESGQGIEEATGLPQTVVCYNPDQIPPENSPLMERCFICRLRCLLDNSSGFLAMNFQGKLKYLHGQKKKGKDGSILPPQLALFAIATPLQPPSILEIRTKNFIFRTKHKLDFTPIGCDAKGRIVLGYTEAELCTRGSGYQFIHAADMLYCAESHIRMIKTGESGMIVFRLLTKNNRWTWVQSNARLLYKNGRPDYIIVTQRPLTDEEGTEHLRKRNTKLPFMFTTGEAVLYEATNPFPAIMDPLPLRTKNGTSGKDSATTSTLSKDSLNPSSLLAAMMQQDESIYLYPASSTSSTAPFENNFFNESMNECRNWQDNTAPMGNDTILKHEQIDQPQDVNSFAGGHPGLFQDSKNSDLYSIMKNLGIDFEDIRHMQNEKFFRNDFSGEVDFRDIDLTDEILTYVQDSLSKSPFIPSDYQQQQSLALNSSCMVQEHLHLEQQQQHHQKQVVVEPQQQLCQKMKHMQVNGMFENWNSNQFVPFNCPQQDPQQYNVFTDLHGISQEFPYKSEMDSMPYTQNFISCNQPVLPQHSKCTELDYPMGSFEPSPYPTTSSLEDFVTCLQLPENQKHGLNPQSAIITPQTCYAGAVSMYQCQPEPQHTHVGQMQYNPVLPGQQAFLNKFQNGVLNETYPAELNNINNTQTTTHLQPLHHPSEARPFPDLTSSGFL

Ephrin type-A receptor 4 = Ephrin type-A receptor 4 (Mus musculus, UniProt Q03137); assay: inhibitors of EphA4 binding to KYL peptide, primary screen, biochemical, colorimetric, mouse EphA4 (AID 689); assay type: functional
Ephrin type-A receptor 4, sequence (Q03137 whole entry): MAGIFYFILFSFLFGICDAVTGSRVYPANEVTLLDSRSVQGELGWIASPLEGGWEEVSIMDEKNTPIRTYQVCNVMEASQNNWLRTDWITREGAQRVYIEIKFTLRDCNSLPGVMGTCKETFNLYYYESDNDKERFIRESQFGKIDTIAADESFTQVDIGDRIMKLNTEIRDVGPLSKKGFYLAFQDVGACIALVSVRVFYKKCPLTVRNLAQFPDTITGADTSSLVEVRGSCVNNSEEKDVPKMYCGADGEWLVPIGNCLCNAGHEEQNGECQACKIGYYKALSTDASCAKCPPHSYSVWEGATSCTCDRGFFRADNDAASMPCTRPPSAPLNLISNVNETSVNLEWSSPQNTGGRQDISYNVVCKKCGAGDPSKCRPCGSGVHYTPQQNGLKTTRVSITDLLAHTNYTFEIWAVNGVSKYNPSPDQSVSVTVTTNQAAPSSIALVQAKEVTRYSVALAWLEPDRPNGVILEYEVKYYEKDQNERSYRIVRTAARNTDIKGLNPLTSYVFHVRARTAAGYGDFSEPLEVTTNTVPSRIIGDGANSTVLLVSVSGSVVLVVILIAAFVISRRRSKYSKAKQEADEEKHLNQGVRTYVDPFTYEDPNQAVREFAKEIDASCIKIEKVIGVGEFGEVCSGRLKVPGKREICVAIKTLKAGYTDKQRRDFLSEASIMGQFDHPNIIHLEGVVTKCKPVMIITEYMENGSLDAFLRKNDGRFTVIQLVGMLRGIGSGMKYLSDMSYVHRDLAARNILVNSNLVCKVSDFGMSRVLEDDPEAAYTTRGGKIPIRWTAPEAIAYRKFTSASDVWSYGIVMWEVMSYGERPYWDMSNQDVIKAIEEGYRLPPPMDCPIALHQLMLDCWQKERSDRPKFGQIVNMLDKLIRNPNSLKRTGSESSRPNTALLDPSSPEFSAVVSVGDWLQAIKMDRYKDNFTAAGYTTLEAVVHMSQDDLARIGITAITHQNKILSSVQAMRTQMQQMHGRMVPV

[2] = target: T1, Tyrosine-protein phosphatase non-receptor type 7 (Homo sapiens, UniProt P35236); assay: inhibitors of human HePTP phosphatase, […], biochemical, absorbance, leukemia target (AID 521); assay type: functional
T1 sequence (P35236 whole entry): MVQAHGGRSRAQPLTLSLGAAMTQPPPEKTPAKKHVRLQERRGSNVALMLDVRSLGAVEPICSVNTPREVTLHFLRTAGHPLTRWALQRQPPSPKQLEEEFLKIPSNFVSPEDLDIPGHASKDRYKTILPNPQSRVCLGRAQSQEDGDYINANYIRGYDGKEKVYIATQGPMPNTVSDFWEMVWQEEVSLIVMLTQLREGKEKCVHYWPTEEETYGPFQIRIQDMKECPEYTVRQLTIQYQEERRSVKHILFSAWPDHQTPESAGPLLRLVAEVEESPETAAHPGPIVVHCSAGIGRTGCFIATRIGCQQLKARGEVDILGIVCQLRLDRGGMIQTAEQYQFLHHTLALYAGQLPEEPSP

Prothrombin = Prothrombin (Homo sapiens, UniProt P00734); assay: Thrombin 1536 HTS Dose Response Confirmation. [Related pubchem assays: 1046 (Thrombin 1536 HTS; hits were confirmed in this assay)]; assay type: functional
[3] = target: T2, Mannose-6-phosphate isomerase (Homo sapiens, UniProt P34949); assay: human PMI inhibitors, high substrate, primary screen, biochemical, fluorescence intensity, high mannose 6-phosphate (AID 1220)
T2 sequence (P34949 whole entry): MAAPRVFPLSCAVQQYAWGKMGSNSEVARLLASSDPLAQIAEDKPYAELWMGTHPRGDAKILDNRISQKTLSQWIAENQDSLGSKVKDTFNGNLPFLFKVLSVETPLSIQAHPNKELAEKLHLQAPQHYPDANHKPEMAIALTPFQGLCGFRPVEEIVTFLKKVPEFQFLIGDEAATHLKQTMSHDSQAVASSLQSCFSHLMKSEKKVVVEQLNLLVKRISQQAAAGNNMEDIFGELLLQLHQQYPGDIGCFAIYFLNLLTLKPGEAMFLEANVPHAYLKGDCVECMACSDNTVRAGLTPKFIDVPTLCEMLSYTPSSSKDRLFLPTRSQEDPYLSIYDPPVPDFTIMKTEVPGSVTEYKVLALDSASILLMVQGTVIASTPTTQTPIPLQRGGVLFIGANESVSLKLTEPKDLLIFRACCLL

Protein Tat = target: T3, Protein Tat (Human immunodeficiency virus type 1 group M subtype B (isolate HXB2)(HIV-1), UniProt P04608); assay type: functional;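 also: tat binding to TAR RNA read out by fluorescence polarization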
T3 sequence (P04608 whole entry): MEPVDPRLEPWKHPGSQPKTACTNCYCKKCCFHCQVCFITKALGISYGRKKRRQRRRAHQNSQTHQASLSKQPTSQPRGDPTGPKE

[4] = inhibitors of intracellular T. cruzi replication, confirmation, NIH3T3 host cells, beta-gal luminescence (AID 2044); assay type: functional, cell-based;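 also: intracellular parasites grown in NIH/3T3 mouse fibroblasts as host cells; luminescent beta-galactosidase reporter signal from transgenic T. cruzi replicating inside host cells; inhibitors lower the luminescence signal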
[5] = cytotoxicity toward NIH3T3 fibroblasts, dose response, counter-screen, cell-based, ATP luminescence, mouse fibroblasts (AID 2010); assay type: functional;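 also: cells exposed to compound for about 90 hours before reading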
[6] = target: Heat shock protein HSP 90-alpha (Homo sapiens, UniProt P07900); assay: Luminescence-based dose response biochemical high throughput screening assay for inhibitors of the Heat Shock Protein 90 (HSP90). [Related pubchem assays: 1831 (Summary AID.), 1846 (Confirmation screen.), 1789 (Primary screen.)]
[7] = target: Sphingosine 1-phosphate receptor 2 (Homo sapiens, UniProt O95136); assay: Dose Response Cell Based Assay for Agonists of the S1P2 Receptor. [Related pubchem assays: 729, 736, 843 ]; assay type: functional
Sphingosine 1-phosphate receptor 2, sequence (O95136 whole entry): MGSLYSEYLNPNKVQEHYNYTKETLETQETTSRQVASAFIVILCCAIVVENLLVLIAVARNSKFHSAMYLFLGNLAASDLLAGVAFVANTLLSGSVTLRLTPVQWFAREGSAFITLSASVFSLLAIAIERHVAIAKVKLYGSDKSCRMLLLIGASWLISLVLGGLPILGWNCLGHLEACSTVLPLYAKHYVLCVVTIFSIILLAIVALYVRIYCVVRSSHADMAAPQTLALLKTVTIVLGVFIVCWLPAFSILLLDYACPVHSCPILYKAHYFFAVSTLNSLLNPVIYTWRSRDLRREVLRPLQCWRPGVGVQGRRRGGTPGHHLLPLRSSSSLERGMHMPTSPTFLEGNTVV

[8] = target: E3 ubiquitin-protein ligase Mdm2 (Homo sapiens, UniProt Q00987); assay: enhancers of MDM2-luciferase reporter signal, concentration-effect titration, project on inhibitors of MDM2 ubiquitin ligase, cellular assay, luminescent readout, 384-well plate format (AID 1394); assay type: functional;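 also: MDM2 E3 inhibitors raise luminescence so EC50 is for signal enhancement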
E3 ubiquitin-protein ligase Mdm2, sequence (Q00987 whole entry): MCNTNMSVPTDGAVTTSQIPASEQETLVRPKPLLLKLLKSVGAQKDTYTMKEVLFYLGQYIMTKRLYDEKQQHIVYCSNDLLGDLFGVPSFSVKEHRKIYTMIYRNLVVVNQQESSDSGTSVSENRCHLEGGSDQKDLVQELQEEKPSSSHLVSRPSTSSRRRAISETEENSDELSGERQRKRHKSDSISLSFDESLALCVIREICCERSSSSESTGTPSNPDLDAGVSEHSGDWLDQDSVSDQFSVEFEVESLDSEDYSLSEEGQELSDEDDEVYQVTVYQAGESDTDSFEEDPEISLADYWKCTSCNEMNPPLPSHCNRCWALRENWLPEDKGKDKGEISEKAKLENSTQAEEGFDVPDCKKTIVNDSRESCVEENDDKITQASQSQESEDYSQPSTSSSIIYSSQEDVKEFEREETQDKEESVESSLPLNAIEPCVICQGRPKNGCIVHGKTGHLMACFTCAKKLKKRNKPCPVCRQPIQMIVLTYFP

[9] = system: Streptococcus sp. 'group A'; assay: growth inhibition of control SK(-) GAS strain, dose response, counter-screen for streptokinase expression inhibitor project, luminescence, kanamycin, BacTiterGlo, confirmation (AID 1900); assay type: functional, organism-based
Streptococcus = assay: Group A Streptococcus viability loss, dose response, counter-screen for streptokinase expression inhibitor project, luminescence, BacTiterGlo (AID 1915); assay type: functional, organism-based;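 also: potency for reduction of bacterial viability or growth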
X-box-binding protein 1 = X-box-binding protein 1 (Homo sapiens, UniProt P17861); assay type: functional, Cricetulus griseus;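 also: confirmatory dose-response counter-screen serving a CHOP assay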
X-box-binding protein 1, sequence (P17861 whole entry): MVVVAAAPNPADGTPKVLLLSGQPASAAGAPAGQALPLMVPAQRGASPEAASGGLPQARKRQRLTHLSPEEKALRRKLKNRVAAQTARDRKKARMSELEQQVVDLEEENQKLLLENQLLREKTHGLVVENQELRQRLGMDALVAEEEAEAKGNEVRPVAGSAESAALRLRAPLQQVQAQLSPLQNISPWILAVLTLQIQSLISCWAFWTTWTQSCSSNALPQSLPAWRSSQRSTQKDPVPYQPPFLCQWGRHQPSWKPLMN

[10] = target: T4, High affinity choline transporter 1 (Homo sapiens, UniProt Q9GZV3); assay: CHT inhibitors, dose response, cell-based, 5-point CRC, membrane potential dye (AID 504840); assay type: functional
T4 sequence (Q9GZV3 whole entry): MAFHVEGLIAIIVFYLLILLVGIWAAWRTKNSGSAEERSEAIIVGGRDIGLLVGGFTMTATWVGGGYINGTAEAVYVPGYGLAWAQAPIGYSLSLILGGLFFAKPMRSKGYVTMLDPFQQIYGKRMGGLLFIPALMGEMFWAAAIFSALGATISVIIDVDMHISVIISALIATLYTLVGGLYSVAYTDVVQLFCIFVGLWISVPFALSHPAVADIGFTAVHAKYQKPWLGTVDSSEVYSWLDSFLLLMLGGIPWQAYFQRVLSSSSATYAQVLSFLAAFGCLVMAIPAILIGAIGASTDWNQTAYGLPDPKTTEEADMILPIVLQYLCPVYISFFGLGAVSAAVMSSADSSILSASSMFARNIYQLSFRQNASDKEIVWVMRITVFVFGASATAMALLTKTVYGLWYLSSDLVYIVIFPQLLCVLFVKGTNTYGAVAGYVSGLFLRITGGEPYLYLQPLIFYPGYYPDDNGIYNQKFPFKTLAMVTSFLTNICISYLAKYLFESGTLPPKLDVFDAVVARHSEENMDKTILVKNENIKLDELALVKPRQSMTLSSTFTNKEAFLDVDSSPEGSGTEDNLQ

Cytochrome P450 2C19, sequence (P33261 whole entry): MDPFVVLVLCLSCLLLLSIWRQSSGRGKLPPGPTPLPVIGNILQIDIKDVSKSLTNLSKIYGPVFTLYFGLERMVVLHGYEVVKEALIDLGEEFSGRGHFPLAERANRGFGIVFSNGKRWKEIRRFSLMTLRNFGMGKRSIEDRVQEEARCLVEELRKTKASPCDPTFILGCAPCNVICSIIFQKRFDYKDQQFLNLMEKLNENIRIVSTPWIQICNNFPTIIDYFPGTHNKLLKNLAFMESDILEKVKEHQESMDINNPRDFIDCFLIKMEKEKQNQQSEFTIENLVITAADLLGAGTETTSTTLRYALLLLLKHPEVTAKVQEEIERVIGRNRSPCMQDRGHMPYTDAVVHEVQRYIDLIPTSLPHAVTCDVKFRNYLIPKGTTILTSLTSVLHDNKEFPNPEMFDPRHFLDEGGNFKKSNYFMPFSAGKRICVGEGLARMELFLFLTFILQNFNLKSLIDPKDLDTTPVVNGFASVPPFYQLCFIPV

## COC(=O)NC(c1cccc(F)c1)[C@]1(C(C)=O)CCCC1=O (stereo partly drawn)
Cytochrome P450 2C19
  AC50: 2.51 µM (inconclusive)

## CCOCCc1nnc(NC(=O)c2ccc(OC)c(OC)c2)s1
[1]
  EC50: 6.13 µM (active)

## O=C(CCN1C(=O)/C(=C/C=C/c2ccccc2)SC1=S)Nc1nccs1
Ephrin type-A receptor 4
  IC50: > 100 µM (not active)

## O=C(Nc1ccccc1)c1ccc(NCC2CCCO2)c(S(=O)(=O)N2CCOCC2)c1 (stereo not drawn)
[2]
  IC50: > 100 µM (not active)

## Nc1cccc2c1=NC1(CCCCC1)[N+]=2[O-]
Prothrombin
  IC50: > 50 µM (not active)
[3]
  IC50: > 50 µM (not active)
Protein Tat
  IC50: > 100 µM (inconclusive)

## CCc1ccc(Nc2n[n+](-c3ccccc3)c(-c3ccc(N(CC)CC)cc3)s2)cc1
[4]
  EC50: 0.408 µM (active)
[5]
  EC50: > 60 µM (not active)
[6]
  IC50: 5.48 µM (active)

## O=C(NCC1(c2ccccc2)CCCC1)C(=O)N1CCOCC1
[7]
  EC50: > 50 µM (not active)

## CC(C)c1ccc2c(c1)C1(NN=C(c3ccccc3)S1)C(=O)N2 (stereo not drawn)
[8]
  EC50: 1.42 µM (active)
[9]
  EC50: < 0.06 µM (active)
[4]
  EC50: 0.333 µM (active)
[5]
  EC50: 6.8 µM (active)
Streptococcus
  EC50: 2.81 µM (active)
X-box-binding protein 1
  Absolute IC50 (XBP1): 10 µM
[10]
  IC50: 12.6 µM (active)
